Laboratory results taken from publication PMC7675038, “A Single‐Stranded DNA‐Encoded Chemical Library Based on a Stereoisomeric Scaffold Enables Ligand Discovery by Modular Assembly of Building Blocks” (Advanced Science, 2020).

Target: T1, HSA, human serum albumin (Homo sapiens, UniProt P02768)
T1 construct: gene ALB
Assay: fluorescence polarization, off-DNA
Assay type: binding

T1 sequence (P02768 25-609): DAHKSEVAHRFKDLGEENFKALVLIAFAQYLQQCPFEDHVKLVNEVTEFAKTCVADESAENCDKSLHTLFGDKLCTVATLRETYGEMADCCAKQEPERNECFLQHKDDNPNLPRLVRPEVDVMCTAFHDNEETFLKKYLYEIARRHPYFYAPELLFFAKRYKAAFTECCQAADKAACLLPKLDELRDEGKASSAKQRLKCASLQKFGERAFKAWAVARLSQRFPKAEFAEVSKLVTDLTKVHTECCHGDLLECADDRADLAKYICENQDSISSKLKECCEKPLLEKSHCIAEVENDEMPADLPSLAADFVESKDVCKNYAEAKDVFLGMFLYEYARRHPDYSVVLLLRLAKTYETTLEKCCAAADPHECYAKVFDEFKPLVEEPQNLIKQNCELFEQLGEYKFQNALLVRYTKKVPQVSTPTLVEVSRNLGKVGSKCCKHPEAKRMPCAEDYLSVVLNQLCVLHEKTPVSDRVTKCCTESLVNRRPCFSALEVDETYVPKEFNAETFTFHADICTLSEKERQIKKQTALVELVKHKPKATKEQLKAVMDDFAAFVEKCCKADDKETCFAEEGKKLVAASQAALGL

Kd | Compound
11 ± 2 µM | Cc1ccc(C(=O)NCC(=O)N[C@H](CCC(=O)N[C@@H](CCC(N)=O)C(=O)O)C(=O)N2CCc3nc(-c4ccccc4)ncc3C2)cc1 [compound 16, 16]
5 ± 3 µM | Cc1ccc(C(=O)NCC(=O)N[C@@H](CCC(=O)N[C@@H](CCC(N)=O)C(=O)O)C(=O)N2CCc3nc(-c4ccccc4)ncc3C2)cc1 [compound 17, 17]
